Measured values taken from PMC4453610 (British Journal of Cancer, 2014).

Tests used:
clinical = details: human, plasma, oral
[1] = Pharmacokinetic analysis of sorafenib in plasma of patients; type: in vivo, human; details: compared with previous studies of 400 mg b.i.d. sorafenib
[2] = Day 1 of Cycle 2 vs Day 5 of Cycle 1
[3] = geometric mean, with vs without sorafenib

Row | SMILES | AUC(0-t) (clinical; AUC(0–24) Cycle 1, geometric mean, Day 5, Cycle 1, without sorafenib) | AUC(0-t) (clinical; AUC(0–24) Cycle 2, geometric mean, Day 1, Cycle 2, with 400 mg bid sorafenib) | average decrease in t1/2 when co-administered with sorafenib [2] | average decrease of AUC (0–24) when co-administered with sorafenib [2] | average reduction of Cmax when co-administered with sorafenib [2] | AUC(0–24) Ratio cycles 2/1, geometric mean [3] | Cmax Ratio cycles 2/1, geometric mean [3] | circulating concentrations of sorafenib when dosed in combination with cyclophosphamide and letrozole [1]
1 | O=P1(N(CCCl)CCCl)NCCCO1 (centres unmarked) [cyclophosphamide] | 16700 ng·h/mL | 11900 ng·h/mL | 27% | 29% | 12% | 0.71 | 0.88 | 
2 | CNC(=O)c1cc(Oc2ccc(NC(=O)Nc3ccc(Cl)c(C(F)(F)F)c3)cc2)ccn1 [sorafenib, Sorafenib] |  |  |  |  |  |  |  | not significantly affected
